In a melting point compilation (Tetko et al.; mined from patent text by program, amines drawn as free bases though some values may be those of a salt) one finds melting point data, which are given here for 88 compounds.

Bounds are passed on as bounds.

With `CC(=O)Nc1cccc(CNC(=O)c2[nH]c3ccc(Cl)cc3c2S(=O)(=O)c2ccccc2)c1`, the melting point was in the range of 249 to 250 °C.

The compound `COc1ccc(C(=O)c2cc(OC)ccc2O)cc1` displayed a melting point of 70 to 72 °C. In turn, `Cc1[nH]c(=O)[nH]c1C(=O)c1ccc(N2CCOCC2)cc1` yielded a melting point of 283 to 286 °C. Regarding `Cc1nc(NC(=O)c2ccccc2OC(F)(F)F)sc1C(=O)NCc1ccccc1`, the melting point was in the range of 140 to 141 °C. `COc1ccc(C(=O)CCC(=O)c2ccc(OC)c(OC)c2)cc1OC` displayed a melting point of 181 to 182 °C. The figure for `COc1ccc(S(=O)C(C)(CC=C(C)C)C(=O)NO)cc1` (stereo not drawn) is 108 °C. The value for `COc1ccc(S(=O)(=O)N2CCc3cccc(-c4cccnc4)c32)cc1` was 179 to 181 °C; that for `CC(C)[C@H](NC(=O)N(C)Cc1ccccn1)C(=O)N[C@@H](Cc1ccccc1)[C@@H](O)[C@@H](O)[C@H](Cc1ccccc1)NC(=O)OCc1cccnc1` was 84 to 85 °C; that for `O=C(c1ccc(Oc2ccc(S(=O)c3ccc(Oc4ccc(C(=O)C(Cl)(Cl)Cl)cc4)cc3)cc2)cc1)C(Cl)(Cl)Cl` was 154 to 156 °C. On to `CC(=O)N1CCN(c2ccc(Nc3nccc(-c4sc(Nc5ccccc5)nc4C)n3)cc2)CC1`, for which the melting point was in the range of 245 to 246 °C.

`CNc1ccccc1CS(=O)c1nc2ncccc2[nH]1` (stereo not drawn) had a melting point of 120 °C. The figure for `COc1nc(OC)nc(-n2cnc(S(C)(=O)=O)n2)n1` is 170 °C.

As for `CCOC(=O)c1sc2c(ccc(=O)n2-c2ccccc2)c1Br`, the melting point was in the range of 202 to 206 °C. The value for `Cc1c(Cl)nc2sc(SCc3ccccc3)nn2c1=O` was 102 to 104 °C; that for `CC(C)Oc1ccc(-c2nn(C(C)c3oc4cccc(N5CCOCC5)c4c(=O)c3-c3ccccc3)c3ncnc(N)c23)cc1F` (stereo not drawn) was 211 to 214 °C; that for `COCOc1ccc(CSc2cnn(C(C)(C)C)c(=O)c2Cl)cc1` was 50 to 54 °C.

Compound `O=c1[nH]c2c(OC3CNC3)cccc2n1Cc1ccccc1` yielded a melting point of 181 to 184 °C. The value for `O=C1CN=C(c2ccccc2)c2ccccc2N1CC(F)(F)F` was 130 to 131 °C; that for `NC1CCN(c2c(F)c(F)c3c(=O)c(C(=O)O)cn(C4CC4)c3c2F)C1` (stereo not drawn) was 290 to 292 °C; that for `CCCn1nc(C2CC2)c(C(=O)OCC)c1Cc1ccc(-c2ccccc2S(=O)(=O)NC(C)(C)C)cc1` was 165 to 168 °C. The figure for `CCOC(=O)NCc1cccc(C(=O)OC)c1C(=O)OC` is 187 to 189 °C. `Cc1ccc(-n2nc(-c3ccc(O)cc3)c3cccnc32)cc1` gave a melting point of 201 to 203 °C. Compound `O=c1cc(-c2cnccn2)ss1` had a melting point of 181 °C.

The compound `CCN1CCNC(=O)c2ccc(Nc3ncc(Cl)c(Nc4ccccc4-c4nccn4C)n3)cc21` came in with a melting point of 143 to 151 °C.

As to `Cc1c(Cl)ncc2ncc(-c3ccccc3)cc12`, the melting point stood at 136 °C.

For the compound `Cc1cc(O)c(N)c([N+](=O)[O-])c1`, the melting point fell in the range of 197 to 199 °C. The figure for `O=S(=O)(Cl)c1cc(S(=O)(=O)Cl)c2cc(S(=O)(=O)Cl)cc(S(=O)(=O)Cl)c2c1` is 263 to 270 °C. The figure for `CNC(=O)c1cc(-c2ccc(OC)c(OC)c2)nn(CC(C)C)c1=O` is 111 to 113 °C; for `C#CCNC(=O)c1c(Br)cccc1[Si](C)(C)C` it is 120 to 121 °C; for `CC(=S)NC[C@H]1CN(c2ccc(N3CCN(C)C3=O)c(F)c2)C(=O)O1` it is 168 °C. In turn, `Cn1c(Cc2cccc(C(F)(F)F)c2)nc2c(-c3cccc(C(=O)O)c3)cccc21` gave a melting point of 175 to 177 °C. The figure for `CC(C)(C)OC(=O)N1CCN2C(=O)N(c3ccc(C#N)c4ccccc34)C(=O)C2C1` (stereo not drawn) is 222 to 224 °C; for `CC1=C(C(=O)OC(C)(C)C)C(c2ccccc2Br)C(C(=O)OC(C)(C)C)=C(C)N1` it is 162 to 164 °C. The value for `CCOC(=O)C=Cc1c(-c2ccccc2)nn2ccccc12` was 54 to 55 °C; that for `CC(C)(C)c1ccc(-c2cccc(-c3ccc(C(C)(C)C)cc3)c2N)cc1` was 106 °C; that for `CC1(C2CCCC2)Cc2cc(OCC#N)c(Cl)c(Cl)c2C1=O` (stereo not drawn) was 129 to 131 °C. The figure for `CN1C(=O)CCC1c1cncc(Br)c1` (stereo not drawn) is 85 to 87 °C; for `CCCCOc1cc(Oc2ccc(C(F)(F)F)cn2)ccc1CCCOc1c(CC(=O)O)cccc1OC` it is 64 to 65 °C. `CSc1ccc(-c2ccc(C(=O)Nc3cc4ncc(CN5CCCC5)cc4cc3C)cc2)cc1` registered a melting point of 198 °C. The figure for `CC(CO)(CO)NS(=O)(=O)c1cccc(NC(=O)c2cnn3c(C(F)F)cc(-c4ccc(C(F)(F)F)cc4)nc23)c1` is 246 °C.

On to `N#Cc1c[nH]c(-c2ccccc2)c1`, for which the melting point is 150 to 151 °C. The figure for `COC(=O)CCCC(C)(C)c1ccc(C(=O)c2ccccc2C(=O)O)cc1` is 138 to 140 °C.

Compound `Cc1cc(C)cc(-c2cn(C(C)C)c3ccccc23)c1` came in with a melting point of 60 to 62 °C.

Compound `CN1CCC2(CC=C(c3cc4ccccc4s3)CC2)CC1` registered a melting point of 89.7 to 91.2 °C. The figure for `Cc1ccc2nc(-c3ccccc3C#N)n(C)c(=O)c2c1` is 157 to 158 °C; for `O=C(NCC12CC3CC(CC(Cl)(C3)C1)C2)c1ccccc1Cl` it is 153 °C. The value for `CC(C)(C)OC(=O)c1sc(Nc2ccc(Cl)cc2)c2c1CCc1cnoc1-2` was 197 to 198 °C. Turning to `CCn1c(C)nc2cc(S(C)(=O)=O)c(Cl)c(N)c21`, the melting point lay within 179 to 186 °C. The value for `O=C(C=Cc1ccc(CN(CCO)C2CCCCC2)cc1)Nc1ccc(-c2ccc(Cl)cc2)cc1` was 178 to 179 °C; that for `CSc1cc2ncnc(Cl)c2s1` was 138 to 140 °C; that for `O=C(NC1CCCCC1)c1ccccc1I` was 148 to 149 °C. The compound `CC(=O)NCc1ccc(C(C)(C)NC(=O)OCc2ccccc2)cc1` yielded a melting point of 132 to 135 °C. The figure for `COc1ccc2c3c(c(=O)oc2c1)CN(Cc1ccc(Cl)c(Cl)c1)CC3` is 144 to 146 °C. The figure for `CN(Sc1ccccc1)C(=O)Oc1cccc2c1OC(C)(C)C2` is 66 °C; for `COC(=O)C(=O)c1c[nH]c2c1ccc1c3ccccc3[nH]c12` it is above 290 °C; for `Cc1ccc(C=Cc2ccc(-c3ccccc3)s2)cc1` it is 159 to 160 °C. The figure for `COCCOC(=O)C1=C(C(F)F)NC(C)=C(C(=O)OC(C)C)C1c1cccc([N+](=O)[O-])c1` (stereo not drawn) is 146 to 147 °C; for `Cn1cc(C2=C(c3c4n(c5ccccc35)CC(CN)CC4)C(=O)NC2=O)c2ccccc21` (stereo not drawn) it is 160 to 165 °C; for `Cc1cc(-c2cc(=O)c3cccnc3o2)cc(C)c1OCC(=O)O` it is 280 °C.

For `CC(C)c1cccc(C(C)C)c1NC(=O)NCC1(SCc2ccccc2)CCCCC1`, the melting point came to 156 °C. As for `C=CCOc1cccc2nc(C)sc12`, the melting point is 38 to 39 °C. The value for `Nc1ccc(Cl)cc1C(=O)c1ccccc1OCc1ccccc1` was 110 to 111 °C. The compound `Cc1cc2c(c(C)c1NCc1ccccc1)C(c1ccc(C(C)C)cc1)CO2` (stereo not drawn) returned a melting point of 82 to 83 °C. Compound `O=C(CS(=O)Cc1ccc(Cl)c(Cl)c1)NO` (stereo not drawn) registered a melting point of 191 to 192 °C. The value for `CCN(CC)C(=O)/C=C/C(C)Sc1nc(N)cc(Cl)n1` (stereo not drawn) was 152 to 153 °C. In the case of `O=C1OCC2Cc3cccc(F)c3OC12` (stereo not drawn), the melting point was 75.5 to 77.5 °C. The value for `CCOC(=O)/C=C(\c1ccc(F)cc1)c1cc(OC)c(OC)c(OC)c1` was 133 to 135 °C. In turn, `CC(C)Cn1c(=O)n(C)c(=O)c2c(Sc3ccc(N)cc3)c(Cc3cccc4ccccc34)sc21` registered a melting point of 177 to 178 °C.

Consider `CCOC(=O)C1(c2ccccc2)CCC=CC1Cl` (stereo not drawn), for which the melting point lay in the range of 137 to 139 °C.

`O=C1OC(c2ccccc2)=CC1=Cc1cccs1` displayed a melting point of 141 °C. The value for `CSc1c(C(=O)O)ccc(F)c1F` was 149 to 150 °C; that for `CC(Cn1ncnn1)n1nnc2cc3c(=O)n(C)nnc3cc2c1=O` (stereo not drawn) was 228 to 230 °C; that for `CCOC(=O)[C@@H]1[C@H](C)OC(=O)[C@@H]1NC(C)=O` was 165 to 167 °C. Consider `COC(=O)C=C(C)c1ccc2c(ccn2S(=O)(=O)c2ccccc2)c1`, for which the melting point was in the range of 80 to 85 °C. The figure for `OC(CN1CCNC1=S)c1cccc(Cl)c1` (stereo not drawn) is 128 °C; for `CCOC(=O)C=C(C)c1ccc(-c2ccc(Cl)cc2)cc1` it is 91 to 94 °C.

As to `Cc1ccc(S(=O)(=O)OC(=O)c2ccc(C(=O)OS(=O)(=O)c3ccc(C)cc3)cc2)cc1`, the melting point was in the range of 170 to 176 °C.

In turn, `CCOC(=O)c1cnc2c([N+](=O)[O-])c(Cl)c(F)cc2c1O` gave a melting point of 226 to 228 °C. The value for `Cc1cc(NCc2ccc3oc(-c4ccccc4-c4nnn[nH]4)c(Br)c3c2)n2nccc2n1` was above 250 °C.

In the case of `CCCCCCCCCCCC(=O)c1cn(CCCC(=O)O)c2ccccc12`, the melting point fell in the range of 88 to 90 °C. Compound `Cc1cc(NCCO)n2ncc([N+](=O)[O-])c2n1` showed a melting point of 231 °C. The value for `N#CCc1ccc2onc(-c3ccc(Cl)cc3)c2c1` was 118 °C; that for `Cc1c(N2CCC(N(C)Cc3ccccc3)C2)c(F)cc2c(=O)c(C(=O)O)cn(C3CC3)c12` (stereo not drawn) was 161 °C; that for `O=C(NNS(=O)(=O)c1ccccc1)c1ccc2c(c1)OCO2` was 156 to 158 °C. The value for `CC(=O)Nc1cnc(-c2cc(Cl)cc(Cl)c2Cl)c(NC(=O)C(C)C)n1` was 230 to 232 °C. The figure for `COC(=O)c1ccc(CBr)c(OC)c1` is 87 to 90 °C; for `NC(=O)c1cc2c(Oc3ccc(C(=O)NCCN4CCOCC4)cc3)cncc2s1` it is 214 to 216 °C; for `CC(=O)SCCCCCCCCCCCOCCOCCOCCOc1ccc(OCc2ccccc2)cc1` it is 55 to 57 °C.
